Target: Chaperonin GroEL (Escherichia coli (strain K12), UniProt P0A6F5)
Assay: Binding affinity to Escherichia coli GroEL expressed in Escherichia coliDH5alpha by ITC assay

Chain of Chaperonin GroEL (P0A6F5 2-548 limits assumed): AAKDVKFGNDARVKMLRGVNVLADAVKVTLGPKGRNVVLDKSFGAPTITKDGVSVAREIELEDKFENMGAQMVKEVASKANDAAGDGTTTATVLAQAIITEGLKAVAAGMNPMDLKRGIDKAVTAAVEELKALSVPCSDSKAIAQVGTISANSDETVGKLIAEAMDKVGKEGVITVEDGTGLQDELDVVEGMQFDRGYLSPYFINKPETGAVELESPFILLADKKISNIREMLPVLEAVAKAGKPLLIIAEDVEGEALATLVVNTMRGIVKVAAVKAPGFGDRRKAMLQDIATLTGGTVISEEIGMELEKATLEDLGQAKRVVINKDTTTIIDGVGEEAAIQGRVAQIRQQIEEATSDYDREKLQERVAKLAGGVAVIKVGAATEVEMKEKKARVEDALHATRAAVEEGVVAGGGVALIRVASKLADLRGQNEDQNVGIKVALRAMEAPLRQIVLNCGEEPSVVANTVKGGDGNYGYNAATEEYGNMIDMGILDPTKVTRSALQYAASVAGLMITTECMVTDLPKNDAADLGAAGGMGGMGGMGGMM

Kd: 9.8 µM
SMILES: CC1=CCC(C(=O)/N=C2\CC=C(S(=O)(=O)O)c3cc(S(=O)(=O)O)cc(S(=O)(=O)O)c32)=C/C1=N/C(=O)C1=CC=C/C(=N\C(=O)/N=C2\C=CC=C(C(=O)/N=C3/CC(C(=O)/N=C4\CC=C(S(=O)(=O)O)c5cc(S(=O)(=O)O)cc(S(=O)(=O)O)c54)=CC=C3C)C2)C1

From BindingDB's records for doi:10.1016/j.bmcl.2019.02.028 (Indiana University School of Medicine, 2019)
